Where “and” joins values, the source holds several entries; their conditions need not be identical. Equal entries are not always repeated. Entries after “also recorded” stand apart in the source; their conditions may differ. Where two headings read alike, the source gives them in different places.
Experiments:
[1] = test system: Streptococcus faecalis ATCC 19433; experiment: Growth inhibition of CRC pathogenic bacteria by BBR; conditions: S. faecalis ATCC 19433; 0.3 mM and 0.6 mM BBR
[2] = test system: Peptostreptococcus anaerobius ATCC 27337; experiment: as above; conditions: P. anaerobius ATCC 27337; 0.3 mM and 0.6 mM BBR
hsMTHFD1 [3] = biological target: T1, hsMTHFD1 (Homo sapiens, UniProt P11586); conditions: BLI, 1:1 binding model
T1 construct: His6 tag with thrombin site of pET28a (inferred) (N); made in house; host or cells: E. coli BL21 (DE3)
Procedure: (§1) A streptavidin matrix-coated sensor chip (SA chip) was firstly equilibrated with buffer A (lysis buffer with 0.05% Tween 20) followed with the immobilization BBP (200 μM) on the SA chip. Next, proteins with increasing concentrations (0.23, 0.91, 3.63, 14.50, and 58.00 μM) were passed on to the chip for the measurement of changes in response unit (nm). The program comprises the stabilization of the baseline with the buffer A for 1 min, 6 min incubation of the BBP with the SA chip for immobilization, stabilizing the baseline again for 3 min, association enabling interaction between proteins and compounds for 4 min, and dissociation for 4 min followed by a regeneration step. […] Raw data were pre-processed, analyzed, and fitted using the 1:1 binding model in the manufacturer’s software (9.0, Pall ForteBio Corp, Menlo Park, CA, USA) to generate kinetic parameters.

hsMTHFD1L [4] = biological target: T2, hsMTHFD1L (Homo sapiens, UniProt Q6UB35); conditions: BLI, 1:1 binding model
Procedure: as §1

[5] = biological target: FtfL from Parabacteroides distasonis (Parabacteroides distasonis, UniProt A6LAR6); experiment: Inhibition of FtfL enzymatic activity; format: biochemical
Procedure: (§2) The activities of the FtfL enzymes were measured according to the protocol described previously.
(§3) Then, the reaction was initiated by adding substrates (0.1 mM tetrahydrofolate, 2 mM MgCl2, 0.05 mM ATP, and 8 mM sodium formate).
(§4) The product was detected with a maximum absorbance at 350 nm (ε = 24.9 mM^−1 cm^−1) using FLUOstar OPTIMA (BMG LABTECH, Offenburgh, Germany). The reaction was performed at 30 °C. The control reaction was performed by replacing BBR with DMSO. […] Data analysis was performed in GraphPad Prism 7.0.

[6] = biological target: FtfL from Bacteroides fragilis (Bacteroides fragilis, UniProt Q64U80); experiment: Inhibition of FtfL enzymatic activity; format: biochemical
Procedure: as §2, §3, §4

[7] = test system: FtfL from Clostridium sporogenes; experiment: Inhibition of FtfL enzymatic activity; format: biochemical; conditions: ns = no significance, not inhibited by BBR
Procedure: as §2, §3, §4

[8] = biological target: FtfL from Clostridium ljungdahlii (Clostridium ljungdahlii, UniProt D8GTX8); experiment: Inhibition of FtfL enzymatic activity; format: biochemical
Procedure: as §2, §3, §4

[9] = biological target: FtfL from Clostridium symbiosum (Clostridium symbiosum, UniProt E7GR72); experiment: Inhibition of FtfL enzymatic activity; format: biochemical
Procedure: as §2, §3, §4

[10] = biological target: FtfL from Lactococcus lactis (Lactococcus lactis subsp. lactis, UniProt Q9CH07); experiment: Inhibition of FtfL enzymatic activity; format: biochemical
Procedure: as §2, §3, §4

PaFtfL [11] = biological target: T3, PaFtfL (Peptostreptococcus anaerobius, UniProt A0A379CIH2); experiment: Inhibition of FtfL enzymatic activity; format: biochemical; conditions: Inhibited by BBR (IC50), FtfL from Peptostreptococcus anaerobius, 20 nM enzyme
T3 sequence (A0A379CIH2 1-558): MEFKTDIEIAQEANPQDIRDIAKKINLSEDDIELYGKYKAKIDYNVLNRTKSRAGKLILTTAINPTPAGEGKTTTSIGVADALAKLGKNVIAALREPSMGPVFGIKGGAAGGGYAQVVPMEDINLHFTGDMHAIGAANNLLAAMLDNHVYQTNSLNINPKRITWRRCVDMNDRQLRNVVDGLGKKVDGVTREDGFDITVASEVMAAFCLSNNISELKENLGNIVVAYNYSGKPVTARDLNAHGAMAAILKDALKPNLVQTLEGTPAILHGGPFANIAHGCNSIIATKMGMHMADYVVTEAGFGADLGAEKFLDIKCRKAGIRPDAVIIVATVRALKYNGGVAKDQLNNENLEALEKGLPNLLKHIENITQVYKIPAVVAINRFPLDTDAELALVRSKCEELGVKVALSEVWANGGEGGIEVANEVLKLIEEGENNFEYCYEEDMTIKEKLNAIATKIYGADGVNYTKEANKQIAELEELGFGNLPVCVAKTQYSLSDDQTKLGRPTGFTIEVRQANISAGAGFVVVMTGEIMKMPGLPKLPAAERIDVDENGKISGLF
Procedure: as §2, §3, §4

[12] = biological target: FtfL from Lactobacillus plantarum (Lactiplantibacillus plantarum, UniProt Q88W76); experiment: Inhibition of FtfL enzymatic activity; format: biochemical; conditions: 100 nM enzyme
Procedure: as §2, §3, §4

[13] = test system: Lactobacillus plantarum DSM 13171; experiment: Effect of BBR on the growth of probiotics; conditions: L. plantarum DSM 13171
[14] = test system: Lactobacillus fermentum CGMCC 1.1880; experiment: Effect of BBR on the growth of probiotics; conditions: L. fermentum CGMCC 1.1880
[15] = test system: Lactobacillus bulgaricus BD 15; experiment: Effect of BBR on the growth of probiotics; conditions: L. bulgaricus BD 15
PaFtfL [16] = biological target: T3, PaFtfL; conditions: 40 μM BBR
[17] = biological target: FtfL from Clostridium perfringens (Clostridium perfringens, UniProt Q0TMI3); experiment: biochemical
PaFtfL [18] = biological target: T3, PaFtfL; set-up: species or system P. anaerobius; conditions: BLI, wildtype PaFtfL, immobilized BBP, 1:1 binding model
Procedure: as §1

[19] = test system: Lactobacillus acidophilus ATCC 4356; experiment: Effect of BBR on the growth of probiotics; conditions: L. acidophilus ATCC 4356
hsMTHFD1L [20] = biological target: T2, hsMTHFD1L; experiment: Inhibition of hsMTHFD1L ligase activity; format: biochemical; conditions: 0.4 mM BBR
Procedure: (§5) Then, the reaction was initiated by adding substrates (2 mM tetrahydrofolate, 10 mM MgCl2, 40 mM sodium formate, and 5 mM ATP).
as §4

[21] = biological target: FtfL from Fusobacterium nucleatum (Fusobacterium nucleatum, UniProt Q8RHF4); experiment: Inhibition of FtfL enzymatic activity; format: biochemical
[22] = test system: Lactococcus lactis DSM 20481; experiment: Growth inhibition of CRC pathogenic bacteria by BBR; conditions: L. lactis DSM 20481; 0.3 mM and 0.6 mM BBR
PaFtfL Y229A/F383A/W411A = format: binding, P. anaerobius; conditions: BLI, tri-mutant
Procedure: as §1

PaFtfL Y229A = format: binding, P. anaerobius; conditions: BLI, allosteric site mutant
Procedure: as §1

PaFtfL F383A = PaFtfL F383A (Peptostreptococcus anaerobius, UniProt A0A379CIH2, F383A); format: binding, P. anaerobius; conditions: BLI
Procedure: as §1

[23] = biological target: FtfL from Vibrio cholerae (Vibrio cholerae, UniProt Q9KLX7); experiment: Inhibition of FtfL enzymatic activity; format: biochemical
[24] = test system: Lactobacillus reuteri DSM 17938; experiment: Effect of BBR on the growth of probiotics; conditions: L. reuteri DSM 17938
[25] = test system: Fusobacterium nucleatum ATCC 10953; experiment: Growth inhibition of CRC pathogenic bacteria by BBR; conditions: F. nucleatum ATCC 10953; 0.3 mM and 0.6 mM BBR
[26] = test system: Clostridium symbiosum ATCC 14940; experiment: as above; conditions: C. symbiosum ATCC 14940; 0.3 mM and 0.6 mM BBR
hsMTHFD1 [27] = biological target: T1, hsMTHFD1; experiment: Inhibition of hsMTHFD1 ligase activity; format: biochemical; conditions: hsMTHFD1, 0.4 mM BBR
Procedure: as §5, §4

[28] = biological target: FtfL from Clostridioides difficile (Clostridioides difficile, UniProt Q189R2); experiment: Inhibition of FtfL enzymatic activity; format: biochemical
[29] = biological target: PaFtfL (P. anaerobius formate tetrahydrofolate ligase) (Peptostreptococcus anaerobius ATCC 27337); experiment: crystal structure; sitting drop vapour diffusion at 22 °C, 10 mg/ml protein; three crystal forms: apo, apo crystals soaked with 1 mM ATP, and protein mixed with 1 mM BBR; protomers A/B and C/D form two dimers that assemble into a tetramer

T1 sequence (P11586 whole entry): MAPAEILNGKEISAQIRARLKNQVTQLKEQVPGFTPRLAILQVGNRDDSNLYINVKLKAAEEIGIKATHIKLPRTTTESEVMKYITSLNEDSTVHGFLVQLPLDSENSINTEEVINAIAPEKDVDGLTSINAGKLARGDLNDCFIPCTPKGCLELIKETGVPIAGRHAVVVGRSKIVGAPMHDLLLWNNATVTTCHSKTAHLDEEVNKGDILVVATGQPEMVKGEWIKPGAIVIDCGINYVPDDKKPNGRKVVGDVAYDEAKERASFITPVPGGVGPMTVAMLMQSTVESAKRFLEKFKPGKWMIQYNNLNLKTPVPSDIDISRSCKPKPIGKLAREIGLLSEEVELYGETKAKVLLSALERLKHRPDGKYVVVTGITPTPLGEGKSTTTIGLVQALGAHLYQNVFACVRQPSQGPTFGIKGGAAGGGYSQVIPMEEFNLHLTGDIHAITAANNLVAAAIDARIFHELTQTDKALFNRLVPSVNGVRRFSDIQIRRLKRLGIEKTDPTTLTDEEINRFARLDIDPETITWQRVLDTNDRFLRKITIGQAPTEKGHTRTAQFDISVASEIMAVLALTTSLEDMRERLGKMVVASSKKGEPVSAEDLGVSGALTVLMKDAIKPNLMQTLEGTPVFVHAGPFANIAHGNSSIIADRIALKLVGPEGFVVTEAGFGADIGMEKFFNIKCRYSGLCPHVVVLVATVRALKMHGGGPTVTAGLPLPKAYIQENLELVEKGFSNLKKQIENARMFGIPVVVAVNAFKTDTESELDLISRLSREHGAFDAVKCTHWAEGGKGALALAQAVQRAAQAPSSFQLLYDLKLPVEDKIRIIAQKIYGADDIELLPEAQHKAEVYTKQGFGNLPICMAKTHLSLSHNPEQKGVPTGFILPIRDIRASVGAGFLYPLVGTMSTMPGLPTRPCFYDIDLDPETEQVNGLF
T2 sequence (Q6UB35 349-978 limits assumed): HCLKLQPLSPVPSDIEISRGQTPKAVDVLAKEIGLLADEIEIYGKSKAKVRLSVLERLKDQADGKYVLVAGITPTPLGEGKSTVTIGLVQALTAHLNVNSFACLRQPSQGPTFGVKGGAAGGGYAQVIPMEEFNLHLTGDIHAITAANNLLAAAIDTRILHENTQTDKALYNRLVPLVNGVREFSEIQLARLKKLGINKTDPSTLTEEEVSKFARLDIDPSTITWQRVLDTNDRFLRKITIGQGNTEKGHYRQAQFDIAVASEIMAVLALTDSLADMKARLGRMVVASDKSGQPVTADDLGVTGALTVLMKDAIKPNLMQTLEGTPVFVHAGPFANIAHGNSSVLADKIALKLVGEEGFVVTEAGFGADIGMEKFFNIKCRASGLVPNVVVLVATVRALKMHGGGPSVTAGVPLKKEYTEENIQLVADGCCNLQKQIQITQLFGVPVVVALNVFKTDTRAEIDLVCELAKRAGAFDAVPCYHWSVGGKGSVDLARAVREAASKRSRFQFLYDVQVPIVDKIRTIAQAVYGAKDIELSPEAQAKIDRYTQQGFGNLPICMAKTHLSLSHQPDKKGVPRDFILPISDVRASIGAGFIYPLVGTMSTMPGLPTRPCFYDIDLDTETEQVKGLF
FtfL from Lactococcus lactis, sequence (Q9CH07 whole entry): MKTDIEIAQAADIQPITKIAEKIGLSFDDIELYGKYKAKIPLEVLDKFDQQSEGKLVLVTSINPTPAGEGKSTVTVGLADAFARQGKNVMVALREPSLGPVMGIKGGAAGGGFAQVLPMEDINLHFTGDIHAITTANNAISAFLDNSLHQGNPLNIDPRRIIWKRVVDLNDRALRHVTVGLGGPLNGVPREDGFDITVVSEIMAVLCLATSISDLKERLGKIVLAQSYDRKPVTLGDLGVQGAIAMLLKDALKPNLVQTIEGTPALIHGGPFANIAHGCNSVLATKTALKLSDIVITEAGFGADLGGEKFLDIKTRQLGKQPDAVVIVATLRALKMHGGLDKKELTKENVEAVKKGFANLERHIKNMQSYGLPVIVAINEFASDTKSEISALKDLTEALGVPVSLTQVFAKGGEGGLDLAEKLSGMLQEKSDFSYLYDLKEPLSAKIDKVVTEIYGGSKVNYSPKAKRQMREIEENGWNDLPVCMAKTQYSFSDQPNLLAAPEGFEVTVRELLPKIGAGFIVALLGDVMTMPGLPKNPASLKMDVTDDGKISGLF
FtfL from Lactobacillus plantarum, sequence (Q88W76 whole entry): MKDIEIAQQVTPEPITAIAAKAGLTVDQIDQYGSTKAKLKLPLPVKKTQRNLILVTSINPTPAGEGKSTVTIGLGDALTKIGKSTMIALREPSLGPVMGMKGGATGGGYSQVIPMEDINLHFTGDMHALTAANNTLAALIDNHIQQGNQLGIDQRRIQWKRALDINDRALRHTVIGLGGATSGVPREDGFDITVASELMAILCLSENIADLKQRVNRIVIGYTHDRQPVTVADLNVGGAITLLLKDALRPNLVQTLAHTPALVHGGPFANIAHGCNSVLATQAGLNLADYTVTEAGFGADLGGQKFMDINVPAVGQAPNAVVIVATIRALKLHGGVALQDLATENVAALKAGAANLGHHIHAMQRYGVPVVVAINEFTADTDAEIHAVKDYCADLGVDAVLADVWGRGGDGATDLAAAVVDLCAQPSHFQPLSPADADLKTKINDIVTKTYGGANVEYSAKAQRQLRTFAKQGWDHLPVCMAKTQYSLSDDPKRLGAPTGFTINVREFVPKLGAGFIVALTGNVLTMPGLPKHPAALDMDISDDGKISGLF
FtfL from Clostridium ljungdahlii, sequence (D8GTX8 entry or part of it): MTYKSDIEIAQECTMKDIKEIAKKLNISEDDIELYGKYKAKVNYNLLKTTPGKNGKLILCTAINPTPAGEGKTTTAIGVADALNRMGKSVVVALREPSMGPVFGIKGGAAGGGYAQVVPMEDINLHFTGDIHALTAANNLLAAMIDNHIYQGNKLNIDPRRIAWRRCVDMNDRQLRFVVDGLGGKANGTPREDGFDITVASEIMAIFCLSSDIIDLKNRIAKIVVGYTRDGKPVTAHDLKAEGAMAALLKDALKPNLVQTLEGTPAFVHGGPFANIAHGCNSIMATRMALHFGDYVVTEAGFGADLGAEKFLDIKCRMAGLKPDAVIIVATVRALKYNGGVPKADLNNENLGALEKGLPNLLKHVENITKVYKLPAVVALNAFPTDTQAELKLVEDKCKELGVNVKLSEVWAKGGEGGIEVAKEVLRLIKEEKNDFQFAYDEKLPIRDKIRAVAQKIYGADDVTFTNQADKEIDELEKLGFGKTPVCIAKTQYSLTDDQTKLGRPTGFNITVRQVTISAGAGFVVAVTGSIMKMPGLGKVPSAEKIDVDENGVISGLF

Compound: COc1ccc2cc3[n+](cc2c1OC)CCc1cc2c(cc1-3)OCO2 [BBR, Berberine]
- effect on bacterial growth [1]: dose-dependent inhibition; also recorded: inhibits the growth
- effect on bacterial growth [2]: dose-dependent inhibition; also recorded: inhibits the growth
- Kd (hsMTHFD1 [3]): 2300 nM
- Kd (hsMTHFD1L [4]): 158 nM
- IC50 [5]: > 200 µM
- IC50 [6]: 105 ± 69.8 µM
- Inhibited by BBR (IC50) [7]: ns
- IC50 [8]: 83.8 ± 10 µM
- IC50 [9]: 129 ± 17.1 µM
- IC50 [10]: 118 ± 18.5 µM
- IC50 (PaFtfL [11]): 62 µM and 62.3 µM
- IC50 [12]: > 200 µM
- effect on bacterial growth [13]: little effect
- effect on bacterial growth [14]: little effect
- effect on bacterial growth [15]: inhibits growth
- apparent Kcat of PaFtfL (PaFtfL [16]; substrate ATP): 16.7 ± 0.83 s⁻¹
- apparent Vmax of PaFtfL (PaFtfL [16]; substrate ATP): 0.010 ± 0.0005 mM/min
- apparent Kcat of PaFtfL (PaFtfL [16]; substrate THF): 78.3 ± 6.7 s⁻¹
- apparent Vmax of PaFtfL (PaFtfL [16]; substrate THF): 0.047 ± 0.004 mM/min
- IC50 [17]: 105 ± 3.15 µM
- Kd (PaFtfL [18]): 674 nM
- effect on bacterial growth [19]: promotes growth
- decrease of ligase enzyme activity (hsMTHFD1L [20]): 36%
- IC50 [21]: 106 ± 27 µM
- effect on bacterial growth [22]: dose-dependent inhibition; also recorded: inhibits the growth
- binding affinity of BBR with PaFtfL Y229A/F383A/W411A (PaFtfL Y229A/F383A/W411A): non-detectable
- binding affinity of BBR with PaFtfL Y229A (PaFtfL Y229A): The affinity is too weak to fit
- reduction of binding affinity versus wildtype PaFtfL (PaFtfL F383A; F383A): 34 fold
- Kd (PaFtfL F383A; active site mutant): 23.1 µM
- IC50 [23]: 130 ± 12.3 µM
- effect on bacterial growth [24]: little effect
- effect on bacterial growth [25]: dose-dependent inhibition; also recorded: inhibits the growth
- effect on bacterial growth [26]: dose-dependent inhibition; also recorded: inhibits the growth
- decrease of ligase enzyme activity (hsMTHFD1 [27]): 58%
- IC50 [28]: 158 ± 68.7 µM

Compound: PaFtfL (P. anaerobius formate tetrahydrofolate ligase) (enzyme)
- stoichiometry N [29]: 4

Reference: publication PMC10696740 (BMC Biology, 2023)
